Results on eight compounds are retold here after ChEMBL document CHEMBL1135259, “Azapeptides as inhibitors of the hepatitis C virus NS3 serine protease” (Bioorg Med Chem Lett, 2002).

What all share (parameters): species or system Hepacivirus hominis
Assay [1] has as its target T1, NS3 (Hepatitis C virus, UniProt A3EZJ3). Kind of assay: Compound was evaluated for its binding affinity against NS3 protease.
The target of assay [2] is T1, NS3. Kind of assay: Binding affinity against Hepatitis C virus NS3 protease.
Assay [3] has as its target T1, NS3. The assay can be described thus: Binding affinity against Hepatitis C virus NS3 protease was calculated as Kcat.

T1 sequence (A3EZJ3 whole entry): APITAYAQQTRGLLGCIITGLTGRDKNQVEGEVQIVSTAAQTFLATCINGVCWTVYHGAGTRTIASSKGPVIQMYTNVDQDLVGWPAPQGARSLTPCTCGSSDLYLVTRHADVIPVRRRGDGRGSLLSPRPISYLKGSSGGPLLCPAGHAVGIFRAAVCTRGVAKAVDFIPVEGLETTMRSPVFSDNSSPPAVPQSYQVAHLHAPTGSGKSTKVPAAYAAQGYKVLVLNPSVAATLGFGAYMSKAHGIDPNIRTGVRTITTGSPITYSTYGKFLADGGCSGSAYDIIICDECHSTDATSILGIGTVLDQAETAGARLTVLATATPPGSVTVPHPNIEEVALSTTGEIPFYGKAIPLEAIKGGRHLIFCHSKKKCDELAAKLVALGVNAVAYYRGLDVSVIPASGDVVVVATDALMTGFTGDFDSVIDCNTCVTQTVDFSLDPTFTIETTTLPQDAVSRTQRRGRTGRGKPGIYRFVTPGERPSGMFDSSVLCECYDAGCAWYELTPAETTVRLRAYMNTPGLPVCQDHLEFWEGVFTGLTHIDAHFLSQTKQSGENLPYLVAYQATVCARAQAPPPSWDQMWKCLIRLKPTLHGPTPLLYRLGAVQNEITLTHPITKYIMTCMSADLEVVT

As for `CCCN(NC(=O)[C@H]1CCCN1C(=O)[C@@H](NC(=O)[C@@H](NC(=O)[C@H](CC(=O)O)NC(=O)[C@H](CCC(=O)O)NC(=O)[C@@H](NC(=O)[C@H](CC(=O)O)NC(C)=O)[C@@H](C)O)C(C)C)C(C)C)C(=O)Oc1ccc([N+](=O)[O-])cc1`, the Ki at NS3 [1] was 3 µM; on NS3 [2], 2 µM; on NS3 [3], 0.5 min⁻¹.

For `CCCN(NC(=O)[C@H]1CCCN1C(=O)[C@@H](NC(=O)[C@@H](NC(C)=O)C(C)C)C(C)C)C(=O)Oc1ccc([N+](=O)[O-])cc1`, the Ki at NS3 [2] is 100 µM.

For the compound `CCCN(NC(=O)[C@H]1CCCN1C(=O)[C@@H](NC(=O)[C@@H](NC(=O)[C@H](CC(=O)O)NC(=O)[C@H](CCC(=O)O)NC(=O)[C@@H](NC(=O)[C@H](CC(=O)O)NC(C)=O)[C@@H](C)O)C(C)C)C(C)C)C(=O)c1cc([N+](=O)[O-])cc([N+](=O)[O-])c1`, the Ki at NS3 [2] is > 100 µM.

As to `CCCN(NC(=O)[C@H]1CCCN1C(=O)[C@@H](NC(=O)[C@@H](NC(=O)[C@H](CC(=O)O)NC(=O)[C@H](CCC(=O)O)NC(=O)[C@@H](NC(=O)[C@H](CC(=O)O)NC(C)=O)[C@@H](C)O)C(C)C)C(C)C)C(=O)c1c(F)c(F)c(F)c(F)c1F`, the Ki on NS3 [2] was > 100 µM.

`CCCN(NC(=O)[C@H]1CCCN1C(=O)[C@@H](NC(=O)[C@@H](NC(=O)[C@H](CC(=O)O)NC(=O)[C@H](CCC(=O)O)NC(=O)[C@@H](NC(=O)[C@H](CC(=O)O)NC(C)=O)[C@@H](C)O)C(C)C)C(C)C)C(=O)OC(C)(C)C(Cl)(Cl)Cl`: at NS3 [2], the Ki was > 100 µM.

As for `CCCN(NC(=O)[C@H]1CCCN1C(=O)[C@@H](NC(=O)[C@@H](NC(=O)[C@H](CC(=O)O)NC(=O)[C@H](CCC(=O)O)NC(=O)[C@@H](NC(=O)[C@H](CC(=O)O)NC(C)=O)[C@@H](C)O)C(C)C)C(C)C)C(=O)c1ccc(-c2ccccc2)cc1`, on NS3 [2], the Ki was > 100 µM.

In the case of `CCCN(NC(=O)[C@H]1CCCN1C(=O)[C@@H](NC(=O)[C@@H](NC(=O)[C@H](CC(=O)O)NC(=O)[C@H](CCC(=O)O)NC(=O)[C@@H](NC(=O)[C@H](CC(=O)O)NC(C)=O)[C@@H](C)O)C(C)C)C(C)C)C(C)=O`, on NS3 [2], the Ki is > 100 µM.

Turning to `CCCN(NC(=O)[C@H]1CCCN1C(=O)[C@@H](NC(=O)[C@@H](NC(=O)[C@H](CC(=O)O)NC(=O)[C@H](CCC(=O)O)NC(=O)[C@@H](NC(=O)[C@H](CC(=O)O)NC(C)=O)[C@@H](C)O)C(C)C)C(C)C)C(=O)CCl`, the Ki at NS3 [2] was > 100 µM.
